Laboratory results reported in US20240025906A1 (NEURON23, INC., priority 2022, published 2024).
Read-outs that look alike come from different tables or passages of the source.

What was measured:
[1] = system: JAK1/TYK2 pSTAT5 (Tyr694/699) in THP-1 cell line; assay: IFNa-stimulated JAK1/TYK2 pSTAT5 (Tyr694/699) inhibition cellular assay, AlphaLISA; type: cell-based; conditions: Homo sapiens, THP-1 cells, AlphaLISA (Assay B)
Procedure, shortened: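 An eight-point 6-fold titration of compound (0.04–10000 nM final) is given to THP-1 cells for 1 h before 30 min of IFNa exposure. Phospho-STAT5 is read by AlphaLISA at 615 nm. IC50 values are derived by logistic regression with bottom set to 0 and Hill slope set to −1.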

TYK2 JH2 = target: T1, TYK2 JH2 (Homo sapiens, UniProt P29597); assay: TYK2 JH2 binding assay (KINOMEscan KdELECT competitive binding); conditions: TYK2 JH2 domain
T1 construct: purchased DiscoverX (KINOMEscan KdELECT service); host or cells: E. coli BL21-derived (T7 phage display) or HEK-293
T1 sequence (P29597 589-875 limits assumed): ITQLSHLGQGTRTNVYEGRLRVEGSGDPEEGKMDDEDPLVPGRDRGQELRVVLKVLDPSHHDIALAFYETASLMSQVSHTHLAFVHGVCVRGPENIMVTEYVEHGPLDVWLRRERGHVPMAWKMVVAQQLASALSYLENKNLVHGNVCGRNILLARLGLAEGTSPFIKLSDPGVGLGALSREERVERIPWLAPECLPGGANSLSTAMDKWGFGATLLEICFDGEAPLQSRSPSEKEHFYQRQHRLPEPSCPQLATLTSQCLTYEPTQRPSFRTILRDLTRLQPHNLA
Procedure, shortened: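 Beads carrying a biotinylated ligand were mixed with tagged JH2 kinase and compound (11 points, 3-fold steps, 0.9% DMSO) and shaken 1 h at room temperature. After washing, kinase was released with 0.5 μM untagged ligand over 30 min and measured by qPCR to derive Kd.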

[2] = IFNa-stimulated, read-out: Cellular THP1_IFNa-pSTATS_IC50
[3] = KINOMEscan KdELECT (Assay A), read-out: Biochemical TYK2_JH2_Kd
[4] = IFNa-stimulated, read-out: Cellular_THP1_IFNa-pSTATS_TYK2
[5] = DiscoverX KINOMEscan KdELECT (Assay A), read-out: Biochemical TYK2_DiscoverX_JH2_BND_Kd
[6] = KINOMEscan KdELECT (Assay A), read-out: Biochemical TYK2_DiscoverX_JH2_BND_Kd

Row | Structure (SMILES) | IC50 [1, 2] [µM] | Kd (TYK2 JH2; [3]) [µM] | IC50 [1, 4] [µM] | Kd (TYK2 JH2; [6]) [µM] | further results
1 | CNc1ncc(C2CC2)c2cc(NC(=O)C3CC3)ncc12 [Example 28, N-(5-cyclopropyl-8-(methylamino)-2,7-naphthyridin-3-yl)cyclopropanecarboxamide] | > 0.5 | ≤ 0.1 | – | – | –
2 | CNc1ncc(Nc2ccccc2)c2cc(NC(=O)C3CC3)ncc12 [Example 134, N-(8-(methylamino)-5-(phenylamino)-2,7-naphthyridin-3-yl)cyclopropanecarboxamide] | > 0.5 | 0.1 to 1 | – | – | –
3 | CCOc1ccc2oc(-c3cnc(NC)c4cnc(NC(=O)C5CC5)cc34)nc2c1 [Example 246, N-(5-(5-ethoxybenzo[d]oxazol-2-yl)-8-(methylamino)-2,7-naphthyridin-3-yl)cyclopropanecarboxamide] | – | – | ≤ 0.5 | – | Kd (TYK2 JH2; [5]): ≤ 0.1 µM
4 | CNc1ncc(-c2ccnn2Cc2ccccc2)c2cc(NC(=O)C3CC3)ncc12 [Example 20, N-(5-(1-benzyl-1H-pyrazol-5-yl)-8-(methylamino)-2,7-naphthyridin-3-yl)cyclopropanecarboxamide] | > 0.5 | ≤ 0.1 | – | – | –
5 | CNc1ncc(/C=C/c2ccc(OC)cc2)c2cc(NC(=O)C3CC3)ncc12 [Example 135, (E)-N-(5-(4-methoxystyryl)-8-(methylamino)-2,7-naphthyridin-3-yl)cyclopropanecarboxamide] | ≤ 0.5 | ≤ 0.1 | – | – | –
6 | CNc1ncc(-c2nc3cc(N4CC(OCCC#N)C4)ccc3o2)c2cc(NC(=O)C3CC3)ncc12 [Example 323, N-(5-(5-(3-(2-cyanoethoxy)azetidin-1-yl)benzo[d]oxazol-2-yl)-8-(methylamino)-2,7-naphthyridin-3-yl)cyclopropanecarboxamide] | – | – | ≤ 0.5 | – | Kd (TYK2 JH2; [5]): ≤ 0.1 µM

Second part, led by results:

Row | IC50 [1, 2] [µM] | Kd (TYK2 JH2; [3]) [µM] | IC50 [1, 4] [µM] | Kd (TYK2 JH2; [6]) [µM] | Structure (SMILES) | further results
7 | – | – | ≤ 0.5 | ≤ 0.1 | CNc1ncc(-c2nc3cc(N4CCC(F)CC4)ccc3o2)c2cc(NC(=O)C3CC3)ncc12 [Example 916, N-[5-[5-(4-fluoro-1-piperidyl)-1,3-benzoxazol-2-yl]-8-(methylamino)-2,7-naphthyridin-3-yl]cyclopropanecarboxamide] | –
8 | – | – | ≤ 0.5 | ≤ 0.1 | CNc1ncc(-c2nc3cc(N4CC(C)(F)C4)ccc3o2)c2cc(NC(=O)C3CC3)ncc12 [Example 932, N-(5-(5-(3-fluoro-3-methylazetidin-1-yl)benzo[d]oxazol-2-yl)-8-(methylamino)-2,7-naphthyridin-3-yl)cyclopropanecarboxamide] | –
9 | – | – | ≤ 0.5 | ≤ 0.1 | CNc1ncc(C#Cc2ccn3ccnc3c2)c2cc(NC(=O)C3CC3)ncc12 [Example 626, N-(5-(imidazo[1,2-a]pyridin-7-ylethynyl)-8-(methylamino)-2,7-naphthyridin-3-yl)cyclopropanecarboxamide] | –
10 | – | – | – | ≤ 0.1 | CNc1ncc(-c2cn3cc(C)ccc3n2)c2cc(NC(=O)C3CC3)ncc12 [Example 1056] | IC50 ([1]; IFNa-stimulated pSTAT5 (Tyr694/699), read-out: Cellular_THP1_IFNa-pSTATS_TYK2): ≤ 0.5 µM
11 | – | – | ≤ 0.5 | ≤ 0.1 | CNc1ncc(C#Cc2ccc3nc4n(c3c2)CCOC4)c2cc(NC(=O)C3CC3)ncc12 [Example 720, N-(5-((3,4-dihydro-1H-benzo[4,5]imidazo[2,1-c][1,4]oxazin-7-yl)ethynyl)-8-(methylamino)-2,7-naphthyridin-3-yl)cyclopropanecarboxamide] | –
12 | – | – | ≤ 0.5 | – | [2H]C([2H])([2H])Nc1ncc(-c2nc3cc(N4CC(OC)C4)ccc3o2)c2cc(NC(=O)[C@H]3C[C@H]3C)ncc12 [Example 469, (1S,2R)—N-(5-(5-(3-methoxyazetidin-1-yl)benzo[d]oxazol-2-yl)-8-((methyl-d3)amino)-2,7-naphthyridin-3-yl)-2-methylcyclopropane-1-carboxamide] | Kd (TYK2 JH2; [5]): ≤ 0.1 µM
13 | – | – | ≤ 0.5 | ≤ 0.1 | CNc1ncc(CCc2ccc(S(C)(=O)=O)cc2)c2cc(NC(=O)C3CC3)ncc12 [Example 839, N-(8-(methylamino)-5-(4-(methylsulfonyl)phenethyl)-2,7-naphthyridin-3-yl)cyclopropanecarboxamide] | –
